# Test results published in patent US20120035144A1 (APEX LABORATORIES PRIVATE LIMITED, priority 2009, published 2012).
# Structures can show the parent of a compound that is named as a salt.
# Legend:
# [1] = cited from earlier work
# [2] = Stability of raw API, stability indicating HPLC method; assay type: physicochemical; conditions: Sodium Fusidate compared with Fusidic acid, Tables 1 and 2
# Source text: In both studies the * Initial denotes the results of the samples tested at the time of receipt of the API from the supplier.
stability as an API [2],SMILES,Protein binding [1]
,"Clc1ccccc1C(c1ccccc1)(c1ccccc1)n1ccnc1 [Clotrimazole, 1-(o-Chloro-α,α-diphenylbenzyl)imidazole]",about 90%
more stable than Fusidic acid,"CC(=O)O[C@H]1C[C@@]2(C)[C@@H](C[C@@H](O)[C@H]3[C@@]4(C)CC[C@@H](O)[C@@H](C)[C@@H]4CC[C@@]32C)/C1=C(\CCC=C(C)C)C(=O)O [Sodium Fusidate, 3μ,11μ,16β-Trihydroxy 29-nor-8μ,9β,13μ,14β-dammara-17(20)[10,21-cis], 24-dien-21-oic acid 16-acetate, sodium salt]",
